Assay results as given in ChEMBL document CHEMBL4359822, “Design, synthesis of 4,5-diazafluorene derivatives and their anticancer activity via targeting telomeric DNA G-quadruplex” (Eur J Med Chem, 2019).
The source made the active and inactive calls. The calls are words filed in the database; no cut-off is given here.

Tests used:
[1] = system: AGS; experiment: Antiproliferative activity against human AGS cells incubated for 36 hrs by CCK8 assay; format: functional, cell-based
[2] = Binding affinity to Tel-26nt G-rich DNA (unknown origin) assessed as change in melting temperature by UV-vis spectrophotometry
[3] = Binding affinity to Tel-26nt G-rich DNA (unknown origin) assessed as change in melting temperature at 2 uM by UV-vis spectrophotometry (reference value: 38.33 +/- 0.07 degreeC)
[4] = system: MCF7; experiment: Inhibition of cell migration in human MCF7 cells at 0.4 uM incubated for 48 hrs by wound healing assay relative to control; format: functional; details: MCF7, 48 h
[5] = Binding affinity to Tel-26nt G-rich DNA (unknown origin) assessed as change in melting temperature at 4 uM by UV-vis spectrophotometry (reference value: 38.33 +/- 0.07 degreeC)
[6] = system: MCF7; experiment: Inhibition of cell migration in human MCF7 cells at 0.2 uM incubated for 48 hrs by wound healing assay relative to control; format: functional; details: MCF7, 48 h
[7] = system: AGS; experiment: Antiproliferative activity against human AGS cells at 10 uM incubated for 36 hrs by CCK8 assay; format: functional, cell-based
[8] = Selectivity index, ratio of IC50 for human MRC5 cells to IC50 for human A549 cells; format: toxicity; details: MRC5 cells versus A549 cells, read-out: Ratio IC50
[9] = Binding affinity to Tel-26nt G-rich DNA (unknown origin) incubated for 24 hrs by EMSA
[10] = Selectivity index, ratio of IC50 for human MRC5 cells to IC50 for human HEPG2 cells
[11] = system: AGS; experiment: Inhibition of cell migration in human AGS cells at 0.2 uM incubated for 48 hrs by wound healing assay relative to control; format: functional
[12] = system: HepG2; experiment: Inhibition of cell migration in human HepG2 cells at 0.2 uM incubated for 48 hrs by wound healing assay relative to control; format: functional; details: HepG2, 48 h
[13] = system: AGS; experiment: Inhibition of cell migration in human AGS cells at 0.4 uM incubated for 48 hrs by wound healing assay relative to control; format: functional
[14] = system: A549; experiment: Antiproliferative activity against human A549 cells incubated for 36 hrs by CCK8 assay; format: functional, cell-based; details: A549, 36 h
[15] = system: A549; experiment: Inhibition of cell migration in human A549 cells at 0.2 uM incubated for 48 hrs by wound healing assay relative to control; format: functional; details: A549, 48 h
[16] = system: A549; experiment: Inhibition of cell migration in human A549 cells at 0.4 uM incubated for 48 hrs by wound healing assay relative to control; format: functional; details: A549, 48 h
[17] = system: HepG2; experiment: Antiproliferative activity against human HepG2 cells incubated for 36 hrs by CCK8 assay; format: functional, cell-based; details: HepG2, 36 h
[18] = system: A549; experiment: Antiproliferative activity against human A549 cells at 10 uM incubated for 36 hrs by CCK8 assay; format: functional, cell-based
[19] = system: HepG2; experiment: Inhibition of cell migration in human HepG2 cells at 0.1 uM incubated for 48 hrs by wound healing assay relative to control; format: functional; details: HepG2, 48 h
[20] = system: AGS; experiment: Inhibition of cell migration in human AGS cells at 0.1 uM incubated for 48 hrs by wound healing assay relative to control; format: functional
[21] = system: MCF7; experiment: Antiproliferative activity against human MCF7 cells at 10 uM incubated for 36 hrs by CCK8 assay; format: functional, cell-based
[22] = system: HepG2; experiment: Antiproliferative activity against human HepG2 cells at 10 uM incubated for 36 hrs by CCK8 assay; format: functional, cell-based
[23] = biological target: Telomerase reverse transcriptase (Homo sapiens) (UniProt O14746); experiment: Inhibition of telomerase activity in human A549 cells at 2 to 8 uM by TRAP assay; format: cell-based
[24] = system: MRC5; experiment: Antiproliferative activity against human MRC5 cells incubated for 36 hrs by CCK8 assay; format: cell-based; details: MRC5, 36 h
[25] = Binding affinity to Tel-26nt G-rich DNA (unknown origin) at => 3 uM incubated for 24 hrs by EMSA
[26] = system: A549; experiment: Inhibition of cell migration in human A549 cells at 0.1 uM incubated for 48 hrs by wound healing assay relative to control; format: functional; details: A549, 48 h
[27] = Binding affinity to Tel-26nt G-rich DNA (unknown origin) assessed as change in melting temperature at 8 uM by UV-vis spectrophotometry (reference value: 38.33 +/- 0.07 degreeC)
[28] = system: MCF7; experiment: Antiproliferative activity against human MCF7 cells incubated for 36 hrs by CCK8 assay; format: functional, cell-based; details: MCF7, 36 h
[29] = system: HepG2; experiment: Inhibition of cell migration in human HepG2 cells at 0.4 uM incubated for 48 hrs by wound healing assay relative to control; format: functional; details: HepG2, 48 h
[30] = Selectivity index, ratio of IC50 for human MRC5 cells to IC50 for human MCF7 cells; format: toxicity; details: MRC5 cells versus MCF7 cells, read-out: Ratio IC50
[31] = system: MCF7; experiment: Inhibition of cell migration in human MCF7 cells at 0.1 uM incubated for 48 hrs by wound healing assay relative to control; format: functional; details: MCF7, 48 h
[32] = Selectivity index, ratio of IC50 for human MRC5 cells to IC50 for human AGS cells; format: toxicity; details: MRC5 cells versus AGS cells, read-out: Ratio IC50
[33] = Binding affinity to Tel-26nt mutated-single-stranded DNA (unknown origin) at 4 to 16 uM measured after each titration for 15 mins during 24 hrs incubation by circular dichroism analysis
[34] = Binding affinity to Tel-26nt G-rich DNA (unknown origin) at 0.25 :1 to 6 : 1 ratio of test compound to DNA measured after each titration for 15 mins during 24 hrs incubation by circular dichroism analysis
[35] = Binding affinity to Tel-26nt G-rich DNA (unknown origin) at 4 to 16 uM measured after each titration for 15 mins during 24 hrs incubation by circular dichroism analysis
[36] = Binding affinity to Tel26nt double stranded DNA (unknown origin) at 4 to 16 uM measured after each titration for 15 mins during 24 hrs incubation by circular dichroism analysis
[37] = Binding affinity to Tel-26nt G-rich DNA (unknown origin) assessed as change in melting temperature at 2 uM by UV-vis spectrophotometry

Sequence of Telomerase reverse transcriptase (Homo sapiens) (O14746 whole entry): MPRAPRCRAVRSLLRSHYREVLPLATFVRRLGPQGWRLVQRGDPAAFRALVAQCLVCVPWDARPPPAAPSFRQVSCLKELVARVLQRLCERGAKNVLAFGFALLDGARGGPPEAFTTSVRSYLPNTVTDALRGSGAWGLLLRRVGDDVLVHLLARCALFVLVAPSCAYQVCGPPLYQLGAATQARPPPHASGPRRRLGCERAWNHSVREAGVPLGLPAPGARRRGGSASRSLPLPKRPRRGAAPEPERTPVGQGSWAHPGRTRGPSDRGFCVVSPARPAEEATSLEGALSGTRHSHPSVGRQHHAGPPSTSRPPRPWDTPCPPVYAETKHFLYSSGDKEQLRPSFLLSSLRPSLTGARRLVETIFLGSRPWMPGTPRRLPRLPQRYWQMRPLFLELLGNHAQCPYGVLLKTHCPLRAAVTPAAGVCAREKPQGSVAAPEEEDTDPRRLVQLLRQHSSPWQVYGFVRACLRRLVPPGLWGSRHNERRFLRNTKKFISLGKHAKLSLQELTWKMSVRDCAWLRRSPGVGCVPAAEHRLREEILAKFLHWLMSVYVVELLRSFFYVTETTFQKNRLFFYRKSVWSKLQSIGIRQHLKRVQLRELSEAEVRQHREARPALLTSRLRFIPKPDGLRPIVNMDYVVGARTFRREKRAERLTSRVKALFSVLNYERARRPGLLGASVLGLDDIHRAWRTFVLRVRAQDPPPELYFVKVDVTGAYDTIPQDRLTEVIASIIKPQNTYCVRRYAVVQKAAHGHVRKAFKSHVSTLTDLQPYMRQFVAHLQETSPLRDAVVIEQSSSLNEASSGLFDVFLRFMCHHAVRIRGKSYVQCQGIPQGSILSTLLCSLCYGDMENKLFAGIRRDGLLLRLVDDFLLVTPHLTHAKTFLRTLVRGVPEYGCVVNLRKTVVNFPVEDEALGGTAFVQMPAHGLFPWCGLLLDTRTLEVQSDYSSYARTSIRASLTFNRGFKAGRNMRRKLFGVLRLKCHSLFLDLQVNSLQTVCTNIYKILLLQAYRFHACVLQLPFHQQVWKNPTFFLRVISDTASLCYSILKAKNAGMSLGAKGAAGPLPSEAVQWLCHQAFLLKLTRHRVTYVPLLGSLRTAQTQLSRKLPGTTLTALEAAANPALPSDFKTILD

SMILES | IC50 [1] [µM] | deltaTm [2] | Tm [3] [°C] | inhibition at 0.4 µM [4] [%] | Tm [5] [°C] | inhibition at 0.2 µM [6] [%] | growth inhibition (GI) [7] | selectivity ratio [8] | Activity [9] | Ratio IC50 [10] | inhibition at 0.2 µM [11] [%] | inhibition at 0.2 µM [12] [%] | inhibition at 0.4 µM [13] [%] | IC50 [14] [µM] | inhibition at 0.2 µM [15] [%] | growth inhibition (GI) [18] | growth inhibition (GI) [21] | growth inhibition (GI) [22] | Activity [25] | Tm [27] [°C] | further results
CN(C)CCCn1cc(C=C2c3cccnc3-c3ncccc32)c(-c2ccc(F)cc2)n1 | 2.93 | Dose-dependent effect | 44 | 63.9 | 44 | 45.7 | Active | 1.72 | Dose-dependent effect | 1.79 | 67.8 | 53.7 | 81.6 | 3.44 | 47.9 | Active | Active | Active | Active | 62.7 | inhibition at 0.4 µM [16]: 74.5%; IC50 [17]: 3.32 µM; inhibition at 0.1 µM [19]: 22.4%; inhibition at 0.1 µM [20]: 44.5%; inhibition [23]: Active; IC50 [24]: 5.93 µM; inhibition at 0.1 µM [26]: 18.3%; IC50 [28]: 6.7 µM; inhibition at 0.4 µM [29]: 69.9%; selectivity ratio [30]: 0.88; inhibition at 0.1 µM [31]: 24.9%; selectivity ratio [32]: 2.02
O=C1C(=C2c3cccnc3-c3ncccc32)SC(=S)N1Cc1nnc(-c2ccc(Br)cc2)o1 | – | Dose-dependent effect | 43.1 | – | 56.1 | – | Active | – | Dose-dependent effect | – | – | – | – | – | – | Active | Active | Active | inactive | 47 | Activity [33]: inactive; Activity [34]: Active; Activity [35]: Active; Activity [36]: inactive
CN(C)CCCn1cc(C=C2c3cccnc3-c3ncccc32)c(-c2ccc(Cl)cc2)n1 | 5.52 | Dose-dependent effect | 45.6 | 54.8 | 45.7 | 41.2 | Active | 2.36 | Dose-dependent effect | 1.52 | 56 | 43.2 | 80 | 4.15 | 54.5 | Active | Active | Active | Active | 43.4 | ΔTm [37]: 4.82 °C; inhibition at 0.4 µM [16]: 78%; IC50 [17]: 6.43 µM; inhibition at 0.1 µM [19]: 19.4%; inhibition at 0.1 µM [20]: 37.5%; inhibition [23]: Active; IC50 [24]: 9.81 µM; inhibition at 0.1 µM [26]: 21.2%; IC50 [28]: 11.8 µM; inhibition at 0.4 µM [29]: 62.3%; selectivity ratio [30]: 0.83; inhibition at 0.1 µM [31]: 17.9%; selectivity ratio [32]: 1.78
